The values below come from patent publication US4066743A, “X-ray contrast agents” (Mallinckrodt, Inc., priority 1976, dated 1978).

Where two headings read alike, the source gives them in different places.

The nature of data set [1]: water solubility of the sodium salt. Format: physicochemical.
Data set [2] deals with Swiss Albino mice. Description: Acute Intravenous Toxicity Studies in Mice. Format: in vivo. Conditions: N-methylglucamine (meglumine) salt, i.v. lateral tail vein, 1 ml./min, 7 day observation, Litchfield and Wilcoxon. The protocol:
(§1) Toxicity evaluations by three different techniques were carried out on solutions of the N-methylglucamine salts of 3-acetamido-5-(4,4-bishydroxymethyl-2-oxazolinyl)-2,4,6-triiodobenzoic acid and 3-acetamido-5-(4-methyl-4-hydroxymethyl-2-oxazolinyl)-2,4,6-triiodobenzoicacid. The techniques utilized are outlined below.
I. Acute Intravenous Toxicity Studies in Mice
Swiss Albino mice (Charles River) were dosed in the lateral tail vein with solutions of the iodinated compounds containing 50.4% iodine in the case of 3-acetamido-5-(4,4-bishydroxymethyl-2-oxazolinyl)-2,4,6-triiodobenzoic acid and 28.2% iodine in the case of 3-acetamido-5-(4-methyl-4-hydroxymethyl-2-oxazolinyl)-2,4,6-triiodobenzoicacid, injected at the rate of 1 ml./min. […] The LD50 values were calculated by the method of Litchfield and Wilcoxon (J. of Pharmac. and Exptl. Therap. 96: 99-113, 1949).

The subject of data set [3] is Swiss Albino mice. Description: Intracerebral Toxicity in Mice. Format: in vivo. To be noted: N-methylglucamine (meglumine) salt, 7 day observation, Litchfield and Wilcoxon. As to the method: as §1
II. Intracerebral Toxicity in Mice
Swiss Albino mice (Charles River) were used. Fixed volumes of solutions of various concentrations of the iodinated compounds were injected intracerebrally via a 27 gauge needle, (1/4 inch length) according to the method of Haley, et al. (Br. J. of Pharmac. 12:12-15, 1957). The animals were observed immediately after injections and daily throughout a 7 day observation period. The LD50 values were calculated by the method of Litchfield and Wilcoxon (J. of Pharmac. and Exptl. Therap. 96:99-113, (1949)).

For a further data set, the system named is Sprague Dawley rats. As to the kind of experiment: Intracisternal Toxicity in Rats. Format: in vivo. Conditions: N-methylglucamine (meglumine) salt, 2 day observation, Litchfield and Wilcoxon. The protocol: as §1
III. Intracisternal Toxicity in Rats
Sprague Dawley (Carworth) rats were used. The method used was a variation of the procedure outlined by Melartin et al. (Invest. Rad. 5:13-21, 1970). After dosing, the animals were housed individually, and observed for immediate reactions and periodically for a 2 day observation period. The LD50 values were calculated according to the method of Litchfield and Wilcoxon, (J. of Pharmac. and Exptl. Therap. 96:[…], 1949).

Setting [4] is: read-out: water solubility of the sodium salt.

For orientation: solubility means the concentration that dissolves in the medium under given conditions. Take `CC(CO)(CO)NC(=O)c1c(I)c(N)c(I)c(C(=O)O)c1I` [Example 6, 5-Amino-N-[2-(1,3-dihydroxy-2-methyl)propyl]-2,4,6-triiodoisophthalamic Acid]: the solubility in data set [1] (setting [4]) was approximately 830 mg/mL.
Take `CC(=O)Nc1c(I)c(C(=O)O)c(I)c(C2=NC(C)(CO)CO2)c1I` (stereo not shown) [Example 8, 3-Acetamido-5-(4-methyl-4-hydroxymethyl-2-oxazolinyl)-2,4,6-triiodobenzoic Acid]: the “LD50 of Meglumine Salt, I.V. (Mice)” value with Swiss Albino mice [2] is 5,500 mg. contained iodine/kg. anima. Further, the “LD50 of Meglumine Salt, Intracerebral (Mice)” value in the data set with Swiss Albino mice [3] is 280 mg. contained iodine/kg. anima. Moreover, in data set [1] (w/v not given, read-out: solubility of the sodium salt), the solubility is 738 mg/mL. In the data set with Sprague Dawley rats, the “LD50 of Meglumine Salt, Intracisternal (Rats)” value is 28 mg. contained iodine/kg. anima.
For `CC(=O)Nc1c(I)c(C(=O)O)c(I)c(C2=NC(CO)(CO)CO2)c1I` [Example 4, 3-Acetamido-5-(4,4-bis(hydroxymethyl)-2-oxazolinyl)-2,4,6-triiodobenzoic Acid], the “LD50 of Meglumine Salt, I.V. (Mice)” value in the data set on Swiss Albino mice [2] is reported as 5,522 mg. contained iodine/kg. anima. Further, the “LD50 of Meglumine Salt, Intracerebral (Mice)” value in the data set on Swiss Albino mice [3] was 485 mg. contained iodine/kg. anima. Besides, the solubility in data set [1] (setting [4]) turned out to be 958 mg/mL. Moreover, in the data set with Sprague Dawley rats, the “LD50 of Meglumine Salt, Intracisternal (Rats)” value was 55 mg. contained iodine/kg. anima.
As to `Nc1c(I)c(C(=O)O)c(I)c(C(=O)NC(CO)(CO)CO)c1I` [Example 3, 5-Amino-N-[tris(hydroxymethyl)methyl]-2,4,6-triiodoisophthalamic Acid], the solubility in data set [1] (setting [4]) is approximately 800 mg/mL.
